Results from US9918966B2, “Anti-cancer compositions and methods” (The Penn State Research Foundation, priority 2013, dated 2018).

How the values were obtained:
[1] = molecular target: T1, Human recombinant COX-2 (Homo sapiens, UniProt P35354); assay type: biochemical; conditions: 0.2, 2.0 and 20 nM; DMSO = 100% activity; FIG. 2C
T1 construct: purchased Cayman Chemical, Ann Arbor, Mich
T1 sequence (P35354 18-604): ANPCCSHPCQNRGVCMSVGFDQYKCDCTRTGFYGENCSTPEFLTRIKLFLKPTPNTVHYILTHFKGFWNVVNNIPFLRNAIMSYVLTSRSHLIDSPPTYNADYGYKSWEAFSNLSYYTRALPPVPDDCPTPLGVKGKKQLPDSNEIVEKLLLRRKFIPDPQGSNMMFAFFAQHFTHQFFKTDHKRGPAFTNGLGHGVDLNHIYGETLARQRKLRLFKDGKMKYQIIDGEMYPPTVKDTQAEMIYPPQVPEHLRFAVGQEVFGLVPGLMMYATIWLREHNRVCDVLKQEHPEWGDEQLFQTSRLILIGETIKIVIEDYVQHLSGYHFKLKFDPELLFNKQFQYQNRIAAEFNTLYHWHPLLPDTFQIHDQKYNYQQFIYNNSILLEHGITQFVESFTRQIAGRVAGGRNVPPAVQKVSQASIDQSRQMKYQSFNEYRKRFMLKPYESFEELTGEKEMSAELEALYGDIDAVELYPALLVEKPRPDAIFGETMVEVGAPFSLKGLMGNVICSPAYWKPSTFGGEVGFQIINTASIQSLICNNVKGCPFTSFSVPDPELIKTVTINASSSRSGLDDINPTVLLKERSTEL

[2] = Toxicity assessments: blood markers and H&E of vital organs; assay type: in vivo
Description: Four to six week old athymic-Foxn1^nu nude mice (Harlan Sprague Dawley, IN), are treated with either vehicle control or selenocoxib-1-GSH (n=5) as described in tumor kinetics studies. At the end of treatment, blood is collected from each sacrificed animal in a plasma separator tube with lithium heparin (BD Microtainer) following cardiac puncture and analyzed for ALKP (Alkaline phosphatase), ALT (Alanine aminotransferase), AST (Aspartate aminotransferase), ALB (Total albumin), TBIL (Total bilirubin), CREA (Creatinine), BUN (Blood urea nitrogen), CHOL (Total cholesterol), TRIG (Total triglyceride) and GLU (Glucose) levels to ascertain possible liver, heart, kidney, and pancreas related toxicity. A portion of vital organs, liver, heart, kidney, pancreas, and spleen-from each animal is formalin-fixed and paraffin-embedded to examine toxicity-associated changes in cell morphology and tissue organization following H&E staining as described in Nguyen N, et al. Cancer Prev Res (Phila) 2011; 4: 248-58.

[3] = tested on: UACC 903 metastatic melanoma cells; test: cells; conditions: Homo sapiens
Description: (§1) Cell viability, proliferation, apoptosis and cell cycle analysis: Viability and IC50 (μmol/L) of normal human melanocytes, fibroblast and melanoma cells following treatment with inhibitors are measured using the MTS assay (Promega, Madison, Wis.) described in Sharma A, et al., Clin Cancer Res 2009; 15:1674-85; and Madhunapantula S V, et al., Mol Cancer Ther 2008; 7:1297-308. […] IC50 values for each inhibitor in μmol/L for respective cell lines are measured from three independent experiments using GraphPad Prism version 4.01 (GraphPad Software, La Jolla, Calif.).
(§2) The number of viable cells is measured using MTS and percentage decrease in viability calculated. IC50 values for each inhibitor in μmol/L for respective cell lines are measured from three independent experiments using GraphPad Prism version 4.01 (GraphPad Software, La Jolla, Calif.).

[4] = tested on: 1205 Lu metastatic melanoma cells; test: cells; conditions: Homo sapiens
Description: as §1, §2

[5] = tested on: 1205 Lu melanoma cells; test: Apo-ONE caspase-3/7 assay (apoptosis); assay type: cell-based, human; conditions: 72 h, dose dependent up to 25 μmol/L
From the text: (§3) Data represent averages of at least 3 independent experiments; bars; S.E.M.

[6] = tested on: UACC 903 melanoma cells; test: Apo-ONE caspase-3/7 assay (apoptosis); assay type: cell-based, human
From the text: as §3

[7] = tested on: 1205 Lu melanoma cells; test: Cell cycle analysis, propidium iodide FACScan; assay type: cell-based, human; conditions: 72 h
Description: (§4) The effect of selenocoxib-1-GSH on cell cycle distribution is measured by analyzing propidium iodide stained 1205 Lu and UACC 903 cells using a BD FACScan. […] Total floating and adherent cells are collected following trypsinization and stained using a 1 mL propidium iodide solution containing 100 μg/mL propidium iodide; (Sigma, St Louis, Mo.), 20 μg/mL Ribonuclease A (Roche diagnostics, Indianapolis, Ind.) and 3 μg/mL Triton X-100 dissolved in 0.1% (W/V) sodium citrate for 30 m at 4° C.
(§5) Selenocoxib-1-GSH treatment increases the sub-G0-G1 cell population, which is indicative of cellular apoptosis. […] Total floating and adherent cells are collected, and stained with propidium iodide to analyze the distribution of cells in different phases of the cell cycle stages using a FACScan analyzer. […] Data represents an average of 2 independent experiments.

[8] = tested on: UACC 903 melanoma cells; test: Cell cycle analysis, propidium iodide FACScan; assay type: cell-based, human; conditions: 72 h
Description: as §4, §5

[9] = tested on: FF2441 human fibroblast cells; test: Cell viability, MTS assay; assay type: cell-based
Description: as §1, §2

[10] = tested on: WM35 radial growth phase melanoma cells; test: Cell viability, MTS assay; assay type: cell-based; conditions: Homo sapiens
Description: as §1, §2

[11] = tested on: FOM103 normal human melanocytes; test: Cell viability, MTS assay; assay type: cell-based; conditions: Melanocyte
Description: as §1, §2

[12] = tested on: WM115 vertical growth phase melanoma cells; test: Cell viability, MTS assay; assay type: cell-based; conditions: Homo sapiens, WM-115
Description: as §1, §2

SMILES: NC(CCC(=O)NC(CS[Se]Cc1cc(-c2ccccc2)n(-c2ccc(S(N)(=O)=O)cc2)n1)C(=O)NCC(=O)O)C(=O)O (stereo not drawn) [Selenocoxib-1-GSH, selenocoxib-1-glutathione]
- COX-2 inhibitory activity [1]: retain COX-2 inhibitory activity
- H&E stained tissue sections of liver, heart, lung, kidney or spleen ([2]; at the end of treatment, versus DMSO vehicle): no changes in the morphology or architecture
- levels of blood markers for major organ related toxicity (ALKP, ALT, AST, ALB, TBIL, CREA, BUN, CHOL, TRIG, GLU) ([2]; mouse, in vivo): negligible differences compared to controls
- IC50 ([3]; UACC-903, 24 h): 30.9 ± 2.8 µM
- IC50 ([3]; UACC-903, 48 h): 20.6 ± 1.7 µM
- IC50 ([3]; UACC-903, 72 h): 14.2 ± 1.2 µM
- cytotoxicity at 12.5 µM ([3]; UACC-903, 72 h, read-out: decrease in cell viability): 40 to 60%
- IC50 ([4]; 24 h): 24.6 ± 2.2 µM
- IC50 ([4]; 48 h): 17.2 ± 1.6 µM
- IC50 ([4]; 72 h): 10.6 ± 2.6 µM
- cytotoxicity at 12.5 µM ([4]; 72 h, read-out: decrease in cell viability): 40 to 60%
- caspase-3/7 activity [5]: increases caspase-3/7 activity
- caspase-3/7 activity ([6]; UACC 903, 50 μmol/L, 72 h): significant decrease
- caspase-3/7 activity ([6]; UACC 903, 72 h, dose dependent up to 25 μmol/L): increases caspase-3/7 activity
- increase of sub-G0-G1 population cells ([7]; 25 μmol/L): 6.2 fold
- cell cycle progression ([7]; 12.5 and 25 μmol/L): inhibits cell cycle progression
- increase of sub-G0-G1 population cells ([8]; UACC 903, 25 μmol/L): 4.7 fold
- cell cycle progression ([8]; UACC 903, 12.5 and 25 μmol/L): inhibits cell cycle progression
- IC50 ([9]; FF2441, 24 h): > 100 µM
- IC50 ([9]; FF2441, 48 h): 75.5 ± 5.6 µM
- IC50 ([9]; FF2441, 72 h): 36.3 ± 5.6 µM
- IC50 ([10]; WM35, 24 h): 52.6 ± 3.8 µM
- IC50 ([10]; WM35, 48 h): 4.1 ± 0.8 µM
- IC50 ([10]; WM35, 72 h): 2.7 ± 0.4 µM
- IC50 ([11]; FOM103, 24 h): 66.3 ± 3 µM
- IC50 ([11]; FOM103, 48 h): 53.4 ± 4.3 µM
- IC50 ([11]; FOM103, 72 h): 41.2 ± 3.2 µM
- IC50 ([12]; WM115, 24 h): 30.1 ± 3.3 µM
- IC50 ([12]; WM115, 48 h): 5.8 ± 0.9 µM
- IC50 ([12]; WM115, 72 h): 3.1 ± 0.4 µM
